In ChEMBL document CHEMBL1201862, “PubChem BioAssay data set” (2004):
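All cell lines were grown in 96-well plates and treated with compound for 48 hours. Abbreviation: GI50, concentration required for 50% inhibition of growth.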 The source made the active and inactive calls. Rule as the data show it: active = GI50 up to about 1.1 µM and inactive = higher.

Columns and labels:
Experiment in all cases: NCI anticancer screen, dose series, 48 h
[1] = tested on: BT-549
[2] = tested on: A498
[3] = tested on: 786-0
[4] = tested on: OVCAR-8
[5] = tested on: MDA-MB-231
[6] = tested on: A549
[7] = tested on: SF-539
[8] = tested on: RXF 393
[9] = tested on: SR
[10] = tested on: TK-10
[11] = tested on: SK-MEL-5
[12] = tested on: NCI-H23
[13] = tested on: HCT-15
[14] = tested on: CAKI-1
[15] = tested on: U-251
[16] = tested on: HCC 2998
[17] = tested on: UO-31
[18] = tested on: DU-145
[19] = tested on: PC-3
[20] = tested on: ACHN

| SMILES | GI50 [1] | GI50 [2] | GI50 [3] | GI50 [4] | GI50 [5] | GI50 [6] | GI50 [7] | GI50 [8] | GI50 [9] | GI50 [10] | GI50 [11] | GI50 [12] | GI50 [13] [µM] | GI50 [14] | GI50 [15] | GI50 [16] | GI50 [17] | GI50 [18] | GI50 [19] | GI50 [20] |
| --- | --- | --- | --- | --- | --- | --- | --- | --- | --- | --- | --- | --- | --- | --- | --- | --- | --- | --- | --- | --- |
| CC(C)(Cc1ccccc1)N1C(=O)N1C(C)(C)Cc1ccccc1 | 29.4 µM (inactive) | > 100 µM (inactive) | 21.6 µM (inactive) | > 100 µM (inactive) | 28.1 µM (inactive) | 20.1 µM (inactive) | 33.3 µM (inactive) | 14.8 µM (inactive) | 20.6 µM (inactive) | > 100 µM (inactive) | 14.1 µM (inactive) | 24 µM (inactive) | 21.4 | > 100 µM (inactive) | 38 µM (inactive) | > 100 µM (inactive) | 14.1 µM (inactive) | > 100 µM (inactive) | 47.5 µM (inactive) | – |
| CN(C)CCCNC(=O)N/N=C/c1ccc(O)cc1 | > 100 µM (inactive) | > 100 µM (inactive) | > 100 µM (inactive) | > 100 µM (inactive) | > 100 µM (inactive) | > 100 µM (inactive) | > 100 µM (inactive) | – | > 100 µM (inactive) | > 100 µM (inactive) | > 100 µM (inactive) | > 100 µM (inactive) | > 100 | > 100 µM (inactive) | > 100 µM (inactive) | > 100 µM (inactive) | > 100 µM (inactive) | > 100 µM (inactive) | > 100 µM (inactive) | > 100 µM (inactive) |
| CC1(C(O)c2ccccc2)CN(C(C)(C)C)C(=O)/C1=C\Sc1ccccc1 (stereo not given) | 59.6 µM (inactive) | > 100 µM (inactive) | 46 µM (inactive) | 28.2 µM (inactive) | 53 µM (inactive) | 20.2 µM (inactive) | > 100 µM (inactive) | – | 30.3 µM (inactive) | > 100 µM (inactive) | 43.7 µM (inactive) | > 100 µM (inactive) | 29.2 | > 100 µM (inactive) | 22.6 µM (inactive) | 94.2 µM (inactive) | 29.7 µM (inactive) | > 100 µM (inactive) | 17.3 µM (inactive) | 64.1 µM (inactive) |
| CCN(CC)c1nc(NC2CCCCC2)c2nc(N(CC)CC)nc(NC3CCCCC3)c2n1 | > 100 µM (inactive) | > 100 µM (inactive) | > 100 µM (inactive) | > 100 µM (inactive) | 88.1 µM (inactive) | > 100 µM (inactive) | 29.5 µM (inactive) | 33.3 µM (inactive) | > 100 µM (inactive) | > 100 µM (inactive) | > 100 µM (inactive) | > 100 µM (inactive) | > 100 | – | > 100 µM (inactive) | > 100 µM (inactive) | – | > 100 µM (inactive) | > 100 µM (inactive) | > 100 µM (inactive) |
| Cc1ccc(Cc2nnc(S)[nH]2)cc1 | > 100 µM (inactive) | > 100 µM (inactive) | 75.3 µM (inactive) | 79.4 µM (inactive) | > 100 µM (inactive) | 84.7 µM (inactive) | > 100 µM (inactive) | – | > 100 µM (inactive) | > 100 µM (inactive) | 74.6 µM (inactive) | 81.3 µM (inactive) | > 100 | > 100 µM (inactive) | > 100 µM (inactive) | > 100 µM (inactive) | 79.8 µM (inactive) | 70.8 µM (inactive) | > 100 µM (inactive) | 63.7 µM (inactive) |
| CCOC(=O)CCC(NC(=O)c1ccc(Nc2nc3ccccc3nc2C(=O)OCC)s1)C(=O)OCC (stereo not given) | 46 µM (inactive) | > 100 µM (inactive) | 21.7 µM (inactive) | 19.5 µM (inactive) | 67.1 µM (inactive) | 88.1 µM (inactive) | 63.4 µM (inactive) | 66.1 µM (inactive) | > 100 µM (inactive) | > 100 µM (inactive) | > 100 µM (inactive) | – | > 100 | 81.3 µM (inactive) | > 100 µM (inactive) | > 100 µM (inactive) | > 100 µM (inactive) | > 100 µM (inactive) | > 100 µM (inactive) | – |
| COc1cccc2c1C(=O)c1c(O)c3c(c(O)c1C2=O)CC(O)(C(O)CO)CC3OC1CC(N2CCOCC2)C(O)C(C)O1 (stereo not given) | 0.0294 µM (active) | 0.00135 µM (active) | 0.0277 µM (active) | 0.00182 µM (active) | 0.0165 µM (active) | 0.00108 µM (active) | 0.0043 µM (active) | 0.0155 µM (active) | 0.00214 µM (active) | 0.00377 µM (active) | 0.00223 µM (active) | 0.00464 µM (active) | 0.00353 | 0.00175 µM (active) | 0.0047 µM (active) | < 0.001 µM (active) | – | 0.00703 µM (active) | 0.0123 µM (active) | 0.00193 µM (active) |
| Cc1cc(-c2nc3c(O)cccc3s2)ccc1N | 22.1 µM (inactive) | – | 29.3 µM (inactive) | 20 µM (inactive) | 22.9 µM (inactive) | 19.1 µM (inactive) | 47.9 µM (inactive) | 67.9 µM (inactive) | 25.5 µM (inactive) | 26.8 µM (inactive) | 33.2 µM (inactive) | 26.9 µM (inactive) | 25.4 | 21.3 µM (inactive) | 29.6 µM (inactive) | 32.8 µM (inactive) | 15.8 µM (inactive) | > 100 µM (inactive) | 21.2 µM (inactive) | 17.2 µM (inactive) |
